Source: patent US20160242414A1, “SAFENED HERBICIDAL COMPOSITIONS CONTAINING HALAUXIFEN OR 4-AMINO-3-CHLORO-5-FLUORO-6-(4-CHLORO-2-FLUORO-3-METHOXYPHENYL) PYRIDINE-2-CARBOXYLIC ACID AND METHODS OF USE THEREOF IN TURF” (Dow AgroSciences LLC, priority 2015, published 2016)

Legend:
[1] = test system: perennial ryegrass (LOLPE); assay: Postemergence turf injury field trial, perennial ryegrass, with Activator 90 adjuvant
Description: (§1) For the ryegrass and tall fescue experiments, research trials were conducted in Indiana at the William H Daniel Turfgrass Research center in West Lafayette, Ind. on well established 10 year old stands of perennial ryegrass and tall fescue that were maintained as a home lawn with regular fertilization, irrigation and a 7.5 cm mowing height. To begin the trial, the research areas were sub-divided into 3 replications of 2.3 m^2 plots in a completely randomized block design for each grass species and spray mixtures were prepared just prior to the treatment by mixing the formulations with water.
Herbicide treatments were applied to ryegrass and tall fescue turfgrass plots in spray applications that included the spray adjuvant Activator 90 at 0.25% (v/v). The plots were treated with a hand held CO2 backpack sprayer equipped with a 3 liter bottle that delivered 804 liters/ha of spray to each plot using a flat fan nozzle. No irrigation, rainfall or mowing occurred until 24 hours after the application. The temperature at the time of the application was 24° C. and the wind speed averaged 4.8 km/hr. There was no cloud cover during the application and the soil was moist. Visual evaluations were made of turf injury for each plot on a 0%-100% scale where 0%=no injury and 100%=death at 0, 7, 14, 28 and 42 days after the application.
The following equation was used to calculate the expected activity of mixtures containing two active ingredients, A and B:
Expected=A+B−(A×B/100) • A=observed efficacy of active ingredient A at the same concentration as used in the mixture; • B=observed efficacy of active ingredient B at the same concentration as used in the mixture.

[2] = test system: tall fescue (FESAR); assay: Postemergence turf injury field trial, tall fescue, with Activator 90 adjuvant; conditions: 28 days after application
Description: as §1
Herbicide treatments were applied to ryegrass and tall fescue turfgrass plots in spray applications that included the spray adjuvant Activator 90 at 0.25% (v/v). The plots were treated with a hand held CO2 backpack sprayer equipped with a 3 liter bottle that delivered 804 liters/ha of spray to each plot using a flat fan nozzle. No irrigation, rainfall or mowing occurred until 24 hours after the application. The temperature at the time of the application was 24° C. and the wind speed averaged 4.8 km/hr. There was no cloud cover during the application and the soil was moist. Visual evaluations were made of turf injury for each plot on a 0%-100% scale where 0%=no injury and 100%=death at 0, 7, 14, 28 and 42 days after the application. […]

In the case of `CNC.O=C(O)COc1ccc(Cl)cc1Cl` [2,4-D DMA, 2,4-D dimethyl ammonium], the “Observed Injury” value ([1]; 28 days after application, 2,4-D DMA 840 g ae/ha) is reported as 3%, the “Observed Injury” value ([1]; 28 days after application, 2,4-D DMA 1120 g ae/ha) is reported as 7% and the “Observed Injury” value ([1]; 28 days after application, 2,4-D DMA 1680 g ae/ha) is reported as 0%. The “Observed Injury” value ([1]; 28 days after application, 2,4-D DMA 2520 g ae/ha) was 10%, the “Observed Injury” value ([1]; 42 days after application, 2,4-D DMA 840 g ae/ha) was 0% and the “Observed Injury” value ([1]; 42 days after application, 2,4-D DMA 1120 g ae/ha) was 0%. For the same molecule, the “Observed Injury” value ([1]; 42 days after application, 2,4-D DMA 1680 g ae/ha) was 0% and the “Observed Injury” value ([1]; 42 days after application, 2,4-D DMA 2520 g ae/ha) was 0%.
In the case of `CNC.COc1c(Cl)ccc(Cl)c1C(=O)O` [Dicamba DMA, dicamba dimethyl ammonium], the “Observed Injury” value ([2]; dicamba DMA 280 g ae/ha) is reported as 0% and the “Observed Injury” value ([1]; 28 days after application, dicamba DMA 280 g ae/ha) is reported as 7%.
With `COC(=O)c1nc(-c2ccc(Cl)c(OC)c2F)cc(N)c1Cl` [Halauxifen-Methyl, halauxifen-methyl] the “Observed Injury” value ([2]; halauxifen-methyl 30 g ae/ha) was 32%, the “Observed Injury” value ([1]; 28 days after application, halauxifen-methyl 15 g ae/ha, 0%=no injury, 100%=death) was 23% and the “Observed Injury” value ([1]; 28 days after application, halauxifen-methyl 30 g ae/ha) was 33%. The “Observed Injury” value ([1]; 28 days after application, halauxifen-methyl 45 g ae/ha) was 40%, the “Observed Injury” value ([1]; 42 days after application, halauxifen-methyl 15 g ae/ha) was 8% and the “Observed Injury” value ([1]; 42 days after application, halauxifen-methyl 30 g ae/ha) was 12%. For the same molecule, the “Observed Injury” value ([1]; 42 days after application, halauxifen-methyl 45 g ae/ha) was 35%.
